Test results: patent US10765114B2, “4-amino-6-(pyridyl and 2-substitutedphenyl)-picolinates and 6-amino-2-(pyridyl and 2-substitutedphenyl)-pyrimidine-4-carboxylates and their use as herbicides” (Dow AgroSciences LLC, priority 2013, dated 2020)

Test system: Key Broadleaf Weed and Crop Species
Experiment: Post-Emergent Test II (Table 5)
Type: in vivo
Conditions: Abutilon theophrasti, post-emergence, 336 h, ABUTH: velvetleaf (Abutilon theophrasti), application rate 70 (kg ai/ha; footnote: g ai/ha), read-out: Visual Growth Reduction (%) 14 Days After Application ABUTH
How it was run: (§1)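 Growth stage at treatment: first or second true leaf. Application: compound in acetone/DMSO diluted into an adjuvant-containing aqueous mix, sprayed at 187 L/ha at several rates. Assessment: visual 0-100% injury at 14 days against untreated plants.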

Row | SMILES | pest or weed control at 70 g/ha [%]
1 | COC(=O)c1nc(-c2ccc(Cl)c(F)c2C)cc(N)c1Cl [Compound 73] | 95 to 100

Same assay, conditions: Abutilon theophrasti, post-emergence, 336 h, ABUTH: velvetleaf (Abutilon theophrasti), application rate 140 (kg ai/ha; footnote: g ai/ha), read-out: Visual Growth Reduction (%) 14 Days After Application ABUTH

Row | SMILES | pest or weed control at 140 g/ha [%]
2 | COC(=O)c1nc(-c2ccc(Cl)c(F)c2C)cc(N)c1Cl [Compound 73] | 95 to 100

Same assay, conditions: Amaranthus retroflexus, post-emergence, 336 h, AMARE: redroot pigweed (Amaranthus retroflexus), application rate 70 (kg ai/ha; footnote: g ai/ha), read-out: Visual Growth Reduction (%) 14 Days After Application AMARE

Row | SMILES | pest or weed control at 70 g/ha [%]
3 | COC(=O)c1nc(-c2ccc(Cl)c(F)c2C)cc(N)c1Cl [Compound 73] | 95 to 100

Same assay, conditions: Amaranthus retroflexus, post-emergence, 336 h, AMARE: redroot pigweed (Amaranthus retroflexus), application rate 140 (kg ai/ha; footnote: g ai/ha), read-out: Visual Growth Reduction (%) 14 Days After Application AMARE

Row | SMILES | pest or weed control at 140 g/ha [%]
4 | COC(=O)c1nc(-c2ccc(Cl)c(F)c2C)cc(N)c1Cl [Compound 73] | 95 to 100

Same assay, conditions: Brassica napus, post-emergence, 336 h, BRSSS: oilseed rape, canola (Brassica napus), application rate 70 (kg ai/ha; footnote: g ai/ha), read-out: Visual Growth Reduction (%) 14 Days After Application BRSSS

Row | SMILES | pest or weed control at 70 g/ha [%]
5 | COC(=O)c1nc(-c2ccc(Cl)c(F)c2C)cc(N)c1Cl [Compound 73] | 95 to 100

Same assay, conditions: Brassica napus, post-emergence, 336 h, BRSSS: oilseed rape, canola (Brassica napus), application rate 140 (kg ai/ha; footnote: g ai/ha), read-out: Visual Growth Reduction (%) 14 Days After Application BRSSS

Row | SMILES | pest or weed control at 140 g/ha [%]
6 | COC(=O)c1nc(-c2ccc(Cl)c(F)c2C)cc(N)c1Cl [Compound 73] | 95 to 100

Same assay, conditions: Chenopodium album, post-emergence, 336 h, CHEAL: lambsquarters (Chenopodium album), application rate 70 (kg ai/ha; footnote: g ai/ha), read-out: Visual Growth Reduction (%) 14 Days After Application CHEAL

Row | SMILES | pest or weed control at 70 g/ha [%]
7 | COC(=O)c1nc(-c2ccc(Cl)c(F)c2C)cc(N)c1Cl [Compound 73] | 95 to 100

Same assay, conditions: Chenopodium album, post-emergence, 336 h, CHEAL: lambsquarters (Chenopodium album), application rate 140 (kg ai/ha; footnote: g ai/ha), read-out: Visual Growth Reduction (%) 14 Days After Application CHEAL

Row | SMILES | pest or weed control at 140 g/ha [%]
8 | COC(=O)c1nc(-c2ccc(Cl)c(F)c2C)cc(N)c1Cl [Compound 73] | 95 to 100

Same assay, conditions: Euphorbia heterophylla, post-emergence, 336 h, EPHHL: wild poinsettia (Euphorbia heterophylla), application rate 70 (kg ai/ha; footnote: g ai/ha), read-out: Visual Growth Reduction (%) 14 Days After Application EPHHL

Row | SMILES | pest or weed control at 70 g/ha [%]
9 | COC(=O)c1nc(-c2ccc(Cl)c(F)c2C)cc(N)c1Cl [Compound 73] | 75 to 84

Same assay, conditions: Euphorbia heterophylla, post-emergence, 336 h, EPHHL: wild poinsettia (Euphorbia heterophylla), application rate 140 (kg ai/ha; footnote: g ai/ha), read-out: Visual Growth Reduction (%) 14 Days After Application EPHHL

Row | SMILES | pest or weed control at 140 g/ha [%]
10 | COC(=O)c1nc(-c2ccc(Cl)c(F)c2C)cc(N)c1Cl [Compound 73] | 75 to 84

Same assay, conditions: Helianthus annuus, post-emergence, 336 h, HELAN: sunflower (Helianthus annuus), application rate 70 (kg ai/ha; footnote: g ai/ha), read-out: Visual Growth Reduction (%) 14 Days After Application HELAN

Row | SMILES | pest or weed control at 70 g/ha [%]
11 | COC(=O)c1nc(-c2ccc(Cl)c(F)c2C)cc(N)c1Cl [Compound 73] | 95 to 100

Same assay, conditions: Helianthus annuus, post-emergence, 336 h, HELAN: sunflower (Helianthus annuus), application rate 140 (kg ai/ha; footnote: g ai/ha), read-out: Visual Growth Reduction (%) 14 Days After Application HELAN

Row | SMILES | pest or weed control at 140 g/ha [%]
12 | COC(=O)c1nc(-c2ccc(Cl)c(F)c2C)cc(N)c1Cl [Compound 73] | 95 to 100

Same assay, conditions: Viola tricolor, post-emergence, 336 h, VIOTR: wild pansy (Viola tricolor), application rate 70 (kg ai/ha; footnote: g ai/ha), read-out: Visual Growth Reduction (%) 14 Days After Application VIOTR

Row | SMILES | pest or weed control at 70 g/ha [%]
13 | COC(=O)c1nc(-c2ccc(Cl)c(F)c2C)cc(N)c1Cl [Compound 73] | 85 to 94

Same assay, conditions: Viola tricolor, post-emergence, 336 h, VIOTR: wild pansy (Viola tricolor), application rate 140 (kg ai/ha; footnote: g ai/ha), read-out: Visual Growth Reduction (%) 14 Days After Application VIOTR

Row | SMILES | pest or weed control at 140 g/ha [%]
14 | COC(=O)c1nc(-c2ccc(Cl)c(F)c2C)cc(N)c1Cl [Compound 73] | 95 to 100

Test system: Key Grass and Sedge Weeds as well as Grass Crops
Experiment: Post-Emergent Test II (Table 6)
Type: in vivo
Conditions: post-emergence, 336 h, CYPSS, 70 g ai/ha, 14 days after application, read-out: Visual Growth Reduction (%) 14 Days After Application CYPSS
How it was run: as §1

Row | SMILES | pest or weed control at 70 g/ha [%]
15 | COC(=O)c1nc(-c2ccc(Cl)c(F)c2C)cc(N)c1Cl [Compound 73] | 95 to 100

Same assay, conditions: post-emergence, 336 h, CYPSS, 140 g ai/ha, 14 days after application, read-out: Visual Growth Reduction (%) 14 Days After Application CYPSS

Row | SMILES | pest or weed control at 140 g/ha [%]
16 | COC(=O)c1nc(-c2ccc(Cl)c(F)c2C)cc(N)c1Cl [Compound 73] | 95 to 100

Same assay, conditions: post-emergence, 336 h, DIGSA: crabgrass (Digitaria sanguinalis), 70 g ai/ha, 14 days after application, read-out: Visual Growth Reduction (%) 14 Days After Application DIGSA

Row | SMILES | pest or weed control at 70 g/ha [%]
17 | COC(=O)c1nc(-c2ccc(Cl)c(F)c2C)cc(N)c1Cl [Compound 73] | 0 to 29

Same assay, conditions: post-emergence, 336 h, DIGSA: crabgrass (Digitaria sanguinalis), 140 g ai/ha, 14 days after application, read-out: Visual Growth Reduction (%) 14 Days After Application DIGSA

Row | SMILES | pest or weed control at 140 g/ha [%]
18 | COC(=O)c1nc(-c2ccc(Cl)c(F)c2C)cc(N)c1Cl [Compound 73] | 0 to 29

Same assay, conditions: post-emergence, 336 h, ECHSS, 70 g ai/ha, 14 days after application, read-out: Visual Growth Reduction (%) 14 Days After Application ECHSS

Row | SMILES | pest or weed control at 70 g/ha [%]
19 | COC(=O)c1nc(-c2ccc(Cl)c(F)c2C)cc(N)c1Cl [Compound 73] | 30 to 44

Same assay, conditions: post-emergence, 336 h, ECHSS, 140 g ai/ha, 14 days after application, read-out: Visual Growth Reduction (%) 14 Days After Application ECHSS

Row | SMILES | pest or weed control at 140 g/ha [%]
20 | COC(=O)c1nc(-c2ccc(Cl)c(F)c2C)cc(N)c1Cl [Compound 73] | 45 to 59

Same assay, conditions: post-emergence, 336 h, ORYSS (crop), 70 g ai/ha, 14 days after application, read-out: Visual Growth Reduction (%) 14 Days After Application ORYSS

Row | SMILES | pest or weed control at 70 g/ha [%]
21 | COC(=O)c1nc(-c2ccc(Cl)c(F)c2C)cc(N)c1Cl [Compound 73] | 0 to 29

Same assay, conditions: post-emergence, 336 h, ORYSS (crop), 140 g ai/ha, 14 days after application, read-out: Visual Growth Reduction (%) 14 Days After Application ORYSS

Row | SMILES | pest or weed control at 140 g/ha [%]
22 | COC(=O)c1nc(-c2ccc(Cl)c(F)c2C)cc(N)c1Cl [Compound 73] | 0 to 29

Same assay, conditions: post-emergence, 336 h, SETFA: giant foxtail (Setaria faberi), 70 g ai/ha, 14 days after application, read-out: Visual Growth Reduction (%) 14 Days After Application SETFA

Row | SMILES | pest or weed control at 70 g/ha [%]
23 | COC(=O)c1nc(-c2ccc(Cl)c(F)c2C)cc(N)c1Cl [Compound 73] | 30 to 44

Same assay, conditions: post-emergence, 336 h, SETFA: giant foxtail (Setaria faberi), 140 g ai/ha, 14 days after application, read-out: Visual Growth Reduction (%) 14 Days After Application SETFA

Row | SMILES | pest or weed control at 140 g/ha [%]
24 | COC(=O)c1nc(-c2ccc(Cl)c(F)c2C)cc(N)c1Cl [Compound 73] | 45 to 59

Same assay, conditions: post-emergence, 336 h, SORVU: grain sorghum (Sorghum vulgare), 70 g ai/ha, 14 days after application, read-out: Visual Growth Reduction (%) 14 Days After Application SORVU

Row | SMILES | pest or weed control at 70 g/ha [%]
25 | COC(=O)c1nc(-c2ccc(Cl)c(F)c2C)cc(N)c1Cl [Compound 73] | 45 to 59

Same assay, conditions: post-emergence, 336 h, SORVU: grain sorghum (Sorghum vulgare), 140 g ai/ha, 14 days after application, read-out: Visual Growth Reduction (%) 14 Days After Application SORVU

Row | SMILES | pest or weed control at 140 g/ha [%]
26 | COC(=O)c1nc(-c2ccc(Cl)c(F)c2C)cc(N)c1Cl [Compound 73] | 60 to 74

Same assay, conditions: post-emergence, 336 h, TRZSS (crop), 70 g ai/ha, 14 days after application, read-out: Visual Growth Reduction (%) 14 Days After Application TRZSS

Row | SMILES | pest or weed control at 70 g/ha [%]
27 | COC(=O)c1nc(-c2ccc(Cl)c(F)c2C)cc(N)c1Cl [Compound 73] | 45 to 59

Same assay, conditions: post-emergence, 336 h, TRZSS (crop), 140 g ai/ha, 14 days after application, read-out: Visual Growth Reduction (%) 14 Days After Application TRZSS

Row | SMILES | pest or weed control at 140 g/ha [%]
28 | COC(=O)c1nc(-c2ccc(Cl)c(F)c2C)cc(N)c1Cl [Compound 73] | 60 to 74

Same assay, conditions: post-emergence, 336 h, ZEAMX: maize, corn (Zea mays), 70 g ai/ha, 14 days after application, read-out: Visual Growth Reduction (%) 14 Days After Application ZEAMX

Row | SMILES | pest or weed control at 70 g/ha [%]
29 | COC(=O)c1nc(-c2ccc(Cl)c(F)c2C)cc(N)c1Cl [Compound 73] | 60 to 74

Same assay, conditions: post-emergence, 336 h, ZEAMX: maize, corn (Zea mays), 140 g ai/ha, 14 days after application, read-out: Visual Growth Reduction (%) 14 Days After Application ZEAMX

Row | SMILES | pest or weed control at 140 g/ha [%]
30 | COC(=O)c1nc(-c2ccc(Cl)c(F)c2C)cc(N)c1Cl [Compound 73] | 75 to 84

Test system: not given
Experiment: not given
Conditions: not given

Row | melting point [°C] | SMILES
31 | 128 to 134 | COC(=O)c1nc(-c2ccc(Cl)c(F)c2C)cc(N)c1Cl [Compound 73]
